Experimental data: patent US20250017881A1, “Fatty acids for ketosis control” (N.V. Nutricia, priority 2022, published 2025)
“Also recorded” adds a separate entry of the source.

Assays:
Type in all cases: cell-based
[1] = tested on: mouse liver cells (Hepa1-6 cell line); test: Ketone production (beta-hydroxybutyrate in medium) by mouse liver cells; settings: for beta-hydroxybutyrate production, fatty acid provided alone: provided alone to liver cells at 1 μM, 5 μM and 10 μM, 6 h ketogenic phase; for beta-hydroxybutyrate production when combined with 100 μM OA, versus 100 μM OA alone: test fatty acid 1 μM to 10 μM (1, 5, 10 μM) + 100 μM oleic acid; for production of ketones from 100 μM fatty acid blend (K-one): test fatty acid within 1 μM to 10 μM + 100 μM fatty acid blend; for ketone production in the absence of a ketogenic fat blend: 5 μM each, alone or in combination
Experimental: An assay to measure ketone production in mouse liver cells (Hepa1-6 cell line) was used wherein cells were first grown to a monolayer (growth phase), then exposed to starvation to deplete cellular lipid stores and subsequently brought into a ketogenic phase wherein cells were cultured in presence of oleic acid or a ketogenic diet fat blend with or without the presence of one of C2, C4, C6 fatty acids, citrate and nicotinamide riboside (herein also referred to as C2, C4, C6, citrate and NR). The ketone body production was subsequently determined by measurement of beta-hydroxybutyrate in the cell culture medium according to the details set out below:
Starvation phase: At the end of the growth phase the cells formed a monolayer. The medium was exchanged for DMEM containing 1 mM glucose and antibiotics (1% penicillin & streptomycin) but no FBS. The medium was further supplemented with L-carnitine (a required co-factor for the uptake of fatty acids into the mitochondria, where fatty acids are turned into ketones). The cells were incubated in this medium for 24 hours. During this time, the cells were vastly deprived of glucose, lipids and hormones contained in FBS, forcing them to consume and empty their lipid stores. […] Moreover, the starvation phase is thought to induce specific metabolic changes that maximize the production of ketones.
Ketogenic phase: At the end of the starvation phase, the medium was exchanged for Krebs-Henseleit buffer (KHB) supplemented with the test nutrients (single fatty acids and fatty acid blend shown in table 1) and L-carnitine.
The fatty acid blend is contained in a similar fatty acid composition to the one used in a ketogenic diet (K-one). The content of every fatty acid in the blend is given as the molar ratio to Oleic acid (OA), whose molar content is set to 1. Dilutions of this blend were used to determine the dose response curve in FIGS. 1B and 1D. C2 and C4 are not included in the blend.
KHB is composed of salts and bicarbonate as a chemical buffer to maintain the osmotic pressure and acidity (pH) at physiological levels. Medium and long chain fatty acids are coupled to bovine serum albumin prior to the assay to make them soluble in KHB and allow their efficient uptake by the cells. The coupling is physiological since in humans, medium and long chain fatty acids are also normally coupled to albumin for transport in the blood circulation. Short chain fatty acids (C2, C4) were not coupled to albumin in the assay since they are water-soluble and circulate freely in humans. The cells were incubated for 6 hours at 37° C. During this time, they produce ketones from the test nutrients with little to no interference from other nutrients and secrete β-hydroxybutyrate (β-Hb) into the medium.
β-Hb measurements: At the end of the ketogenic phase, the whole medium was collected and dried by vacuum centrifugation for 20 hours at 21° C. The dry pellet was resuspended in a small volume of assay buffer to yield a 10-20-fold higher β-Hb concentration than in the medium. The samples were deproteinized using spin columns to measure the free unbound fraction of R-Hb. […] The Fluorescence was measured on a fluorescence microplate reader and is directly proportional to the β-Hb concentration in the sample within a range of 0.1 μM to 50 μM β-Hb.

[2] = tested on: mouse liver cells (Hepa1-6 cell line); test: Propionate viability assay (ATP content, bioluminescence)
Experimental: Starvation phase: At the end of the growth phase the cells formed a monolayer. The medium was exchanged for DMEM containing 1 mM glucose and antibiotics (1% penicillin & streptomycin) but no FBS. The medium was further supplemented with L-carnitine (a required co-factor for the uptake of fatty acids into the mitochondria, where fatty acids are turned into ketones). […] The cells were incubated in this medium for 24 hours.

[3] = tested on: NAD+ depleted mouse liver cells (Hepa1-6 cells); test: NAD+ replenishment of NAD+ depleted liver cells by NAD+ precursors
Experimental: An assay was developed to measure NAD+ replenishment of NAD+ depleted mouse liver cells (Hepa1-6 cells) by NAD+ precursors under ketogenic diet-like conditions. In this assay, mouse liver cells were starved of glucose and depleted of NAD+ through incubation in a very low glucose (1 mM) medium free of vitamin B3, Trp and FBS and supplemented with 10 nM of an NAD+ depleting drug called FK866. Thereafter, the cells were fed with NR or NAM or Niacin (provided as a combination of NAM and nicotinic acid in a 1:1 molar ratio) or Trp to replenish the cells with NAD+. At the end of the supplementation phase, the cells were scraped and extracted using the NAD+ extraction buffer of the EnzyChrom™ NAD/NADH Assay Kit from BioAssay Systems. The NAD+ content of the cells was determined with the same kit following the manufacturer's manual. The NAD+ measurement is based on a […] reaction, in which NAD+ is reduced to NADH, which in turn reduces a formazan (MTT) reagent. The intensity of the reduced product color, measured at 565 nm, is proportional to the NAD+ concentration in the sample. This assay is highly specific for NAD+ and has minimal interference (<1%) by NADP+ or NADPH.

[4] = tested on: NAD+ depleted mouse liver cells; test: Ketone production of NAD+ depleted liver cells replenished with NR; settings: NR 10 μM
Experimental: To measure the impact of replenishing NAD+ in liver cells with NR on ketone production, mouse liver cells were nutrient-deprived in medium containing low (1 mM) glucose and L-carnitine, but no fetal bovine serum, and no NAD+ precursors in the form of vitamin B3 (Niacin, NA, NAM) or Trp, Concomitantly the cells were treated with the NAD+ depleting drug FK866. These conditions created ketogenic diet like nutrient conditions and depleted the cells of NAD+. After 18 hours of incubation, FK866 was removed from the medium and a concentration range of NR was added to replenish NAD+ in liver cells. After 24 hours, the cells were switched to Krebs-Henseleit buffer (KHB) containing L-carnitine and a concentration range (1 μM to 100 μM) of oleic acid, a long chain fatty acid, for 6 hours to induce and measure the production and secretion of b-hydroxybutyrate (PHB) into the medium.

CC(=O)O [C2, acetic acid]
beta-hydroxybutyrate production when combined with 100 μM fatty acid blend, versus blend alone ([1]; 1 μM or 10 μM C2 + 100 μM fatty acid blend (K-one)): slightly greater production of PHb
beta-hydroxybutyrate production, fatty acid provided alone [1]: does not yield any ketones
beta-hydroxybutyrate production, fatty acid provided alone ([1]; listed as 02): virtually no bHB
beta-hydroxybutyrate production when combined with 100 μM OA, versus 100 μM OA alone [1]: more PHb than 100 μM OA alone; also recorded: enhances the production of ketones
production of ketones from 100 μM fatty acid blend (K-one) [1]: enhances the production of ketones

CCC(=O)O [C3, propionic acid]
cytotoxicity, long-term assessment ([2]; 300 uM to 10 mM C3, 24-hour starvation plus 6-hour ketogenic phase): evident for the entire dose-range
cytotoxicity, short-term exposure ([2]; 10 mM C3, 6-hours of exposure (ketogenic phase)): Cytotoxicity was already noted
cytotoxicity (ATP content) over the concentration range ([2]; C3 to 10 mM as printed): dose-dependent increase in cytotoxicity
reduction of beta-hydroxybutyrate yield compared to 100 μM fatty acid blend alone ([1]; 1 μM, 5 μM and 10 μM C3 + 100 μM fatty acid blend): more than 60%
beta-hydroxybutyrate production, fatty acid provided alone [1]: yielded no PHb
beta-hydroxybutyrate production when combined with 100 μM OA, versus 100 μM OA alone [1]: less PHb than 100 μM OA alone; also recorded: inhibits the top-level production of ketones
production of ketones from 100 μM fatty acid blend (K-one) [1]: dose-dependent manner; also recorded: inhibits the top-level production of ketones

CCCC(=O)O [C4, butyric acid]
ketone production in the absence of a ketogenic fat blend ([1]; no fat blend): hardly any ketones
beta-hydroxybutyrate production when combined with 100 μM fatty acid blend, versus blend alone ([1]; 10 μM C4 + 100 μM fatty acid blend (K-one)): more βHb than providing the 100 μM fatty acid blend alone
ketone production from a concentration range of fatty acid blend ([1]; fixed 10 μM C4 + 1 μM to 100 μM fatty acid blend (K-one), versus blend without C4): increasingly enhanced the production of ketones
beta-hydroxybutyrate production, fatty acid provided alone [1]: hardly yielded any PHb
beta-hydroxybutyrate production when combined with 100 μM OA, versus 100 μM OA alone [1]: more PHb than providing 100 μM OA alone; also recorded: potentiates the production of ketones
production of ketones from 100 μM fatty acid blend (K-one) [1]: potentiates the production of ketones

CCCCCC(=O)O [C6, caproic acid]
ketone production in the absence of a ketogenic fat blend ([1]; no fat blend): hardly any ketones
concentration above which the fatty acid starts to be turned as a substrate into beta-hydroxybutyrate ([1]; dose-response curve of the fatty acid alone, 1 μM to 100 μM): above 10 μM
beta-hydroxybutyrate production when combined with 100 μM OA, versus 100 μM OA alone [1]: potentiates the production of ketones
production of ketones from 100 μM fatty acid blend (K-one) [1]: potentiates the production of ketones

O=C(/C=C/c1cccnc1)NCCCCC1CCN(C(=O)c2ccccc2)CC1 [FK866, reference compound]
depletion of NAD+ relative to baseline NAD+ content of untreated liver cells ([3]; 10 nM FK866, very low glucose medium): ~70%

NC(=O)c1ccc[n+]([C@@H]2O[C@H](CO)[C@@H](O)[C@H]2O)c1 [NR, nicotinamide riboside]
top-level production of ketones ([4]; 150 μM and 1000 μM for 24 h, then oleic acid 1 μM to 100 μM for 6 h): increased
NAD+ content ([4]; 150 μM and 1000 μM, ketogenic diet like nutrient conditions): increased
increase of NAD+ content versus equimolar amounts of NAM or Niacin ([3]; 1 mM): significantly greater extent
increase of NAD+ content versus equimolar amounts of Niacin ([3]; lower concentrations below 150 μM): greater extent
NAD+ content of NAD+ depleted liver cells after provision ([3]; within 24 hours of treatment, concentration range): dose-dependently replenishes NAD+ content to and above this baseline

CCCCCCCC/C=C\CCCCCCCC(=O)O [OA, oleic acid, reference compound]
concentration at which top-level (maximized) ketone production is achieved ([1]; ketogenic substrate alone, dose-response curve): 100 µM

O=C(O)CC(O)(CC(=O)O)C(=O)O [citrate]
increase of ketone production from the fat blend ([1]; 200 μM to 1000 μM citrate + 100 μM fatty acid blend (K-one)): 10-20%
ketone production, citrate provided alone ([1]; citrate alone, no fat blend): yielded no ketones
